Results as given in patent publication US20220257642A1, “METHODS AND COMPOSITIONS FOR GENERATING NITRIC OXIDE AND USES THEREOF TO DELIVER NITRIC OXIDE VIA THE RESPIRATORY TRACT” (THIRTY RESPIRATORY LIMITED, priority 2019, published 2022).

Columns and labels:
[1] = system: SARS-CoV-2 clinical isolate; assay: SARS-CoV-2 virus yield reduction assay in Vero E6 cells; format: cell-based
Method: At time 0 hr, Vero E6 cells were infected with virus in presence of the formulation or controls and incubated for 1 hour. After this incubation period the inoculum was removed and the cells were washed. Fresh formulation or controls were then added to the washed cells. At 24 hours post infection, Vero E6 cell supernatants were harvested and titrated, and the virus titration was incubated for 6 days prior to readout to determine any virus yield reduction. Separate tests were performed at four MOIs including 3.0 and 0.3, although only those two MOIs were titrated. The readout was by crystal violet (cell monolayer) staining, followed by CPE scoring.

[2] = system: Vero E6 cells

SMILES | In vitro antiviral action against SARS-CoV-2 ([1]; FIGS. 33 and 34) | Cytotoxicity on the LDH assay [2] | SARS-CoV-2 virus titre ([1]; FIG. 33, Run 1, MOI 3.0, 24 hours) | SARS-CoV-2 virus titre ([1]; FIG. 34, Run 2, MOI 3.0 and MOI 0.3, 48 hours)
O=C(O)CC(O)(CC(=O)O)C(=O)O [citric acid pH 5.8, citric acid] | high in vitro antiviral action | low cytotoxicity |  | 
CCN(CC)CCCC(C)Nc1ccnc2cc(Cl)ccc12 (stereo not shown) [chloroquine, Chloroquine phosphate] |  |  | limit of detection | limit of detection
